Where two headings read alike, the source gives them in different places. Square brackets hold non-standard residues; d marks the D form. Peptide text beside a SMILES is read from it. * marks the point of attachment. Adamantane1carbonyl = O=C(C12CC3CC(CC(C3)C1)C2)*; Oic = O=C(O)[C@@H]1C[C@@H]2CCCC[C@@H]2N1; dIgl = N[C@@H](C(=O)O)C1Cc2ccccc2C1; Igl = N[C@H](C(=O)O)C1Cc2ccccc2C1; Hyp = O=C(O)[C@@H]1C[C@@H](O)CN1; NMeF = CN[C@@H](Cc1ccccc1)C(=O)O; 2Thi = N[C@@H](Cc1cccs1)C(=O)O
Tests used:
[1] = target: T1, B1 receptors (Oryctolagus cuniculus, UniProt P48748); experiment: B1 receptor bioassay, rabbit aorta strips contracted with des-Arg9-BK; assay type: cell-based; details: 50% reduction of sustained contraction to 10^-7 M des-Arg9-BK; read-out: Rabbit Aorta p IC50 B1 receptors (converted)
T1 construct: The thorax was opened and the thoracic aorta carefully removed; from tissue; host or cells: rabbit thoracic aorta spiral strips
T1 sequence (P48748 1-352): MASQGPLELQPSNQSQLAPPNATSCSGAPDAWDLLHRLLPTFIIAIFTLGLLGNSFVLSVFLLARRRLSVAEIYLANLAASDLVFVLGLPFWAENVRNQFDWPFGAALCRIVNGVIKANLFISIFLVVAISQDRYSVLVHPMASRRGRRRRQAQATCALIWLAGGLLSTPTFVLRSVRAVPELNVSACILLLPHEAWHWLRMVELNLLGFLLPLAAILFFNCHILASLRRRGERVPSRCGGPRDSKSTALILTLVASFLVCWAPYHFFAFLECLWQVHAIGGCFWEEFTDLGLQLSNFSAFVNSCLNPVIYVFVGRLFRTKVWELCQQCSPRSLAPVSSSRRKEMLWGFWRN
Description: Male New Zealand white rabbits, weight range 2-3 kg, were killed by an overdose of pentobarbital i.v. The thorax was opened and the thoracic aorta carefully removed. […] The tissues were placed under 1 gm isometric tension and allowed to equilibrate for 1H. At time 1h, a concentration-effect curve was constructed to the selective B1 agonist des-Arg^9 -BK. This was repeated at time 3 hours. […] Once the contraction was sustained, the compound to be assayed was applied to the tissue bath in a cumulative manner. The concentration of the compound which produced a 50% reduction of the sustained contraction was calculated. The negative logarithm of this concentration was calculated and expressed as the […].

[2] = system: isolated rat uterus
Description: (§1) A change of one unit of pA2 value represents an order of magnitude change in potency.
(§2) On isolated smooth muscles, agonist potency is given as percent of BK potency; antagonist potency is given as pA2, and is underlined. In blood pressure assays, the number is the dose of peptide in micrograms that causes 50% reduction in the effect of BK intraarterially administered as a bolus mixture in a 500 g male rat; Ag indicates unquantitated agonist activity; Ant indicates unquantitated antagonist activity.

[3] = system: guinea pig ileum
Description: as §1, §2

[4] = target: T2, Human B2 receptors (Homo sapiens, UniProt P30411); experiment: Human B2 binding, cloned receptor in CHO cell membranes, 3H-bradykinin
T2 construct: expressed in transfected cells; membranes used
T2 sequence (P30411 1-364 isoform P30411-2): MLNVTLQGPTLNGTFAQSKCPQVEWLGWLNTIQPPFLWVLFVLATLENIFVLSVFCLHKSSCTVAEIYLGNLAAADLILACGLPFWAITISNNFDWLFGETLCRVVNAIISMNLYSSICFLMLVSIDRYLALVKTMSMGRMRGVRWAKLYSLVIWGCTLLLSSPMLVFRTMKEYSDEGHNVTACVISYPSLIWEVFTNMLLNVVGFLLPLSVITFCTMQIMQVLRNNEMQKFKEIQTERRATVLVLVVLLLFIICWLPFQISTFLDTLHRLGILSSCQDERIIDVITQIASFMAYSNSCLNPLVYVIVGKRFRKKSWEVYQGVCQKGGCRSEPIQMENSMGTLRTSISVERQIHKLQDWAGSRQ
Description: Human B2 receptors were cloned and expressed in Chinese hamster ovary cells. RNA was isolated from human lung fibroblasts (CCD-16 LU obtained from the ATCC) using the method of Chirgwin et al (Biochemistry 18:5294 (1979)). The RNA was transcribed into cDNA using MMLV reverse transcriptase, the primer […] and the procedure of Maniatis (Molecular Cloning Cold Spring Harbor Laboratory (1982)). The human B2 receptor cDNA was selectively amplified using nested PCR. The first round PCR used the two primers […] and […] and Taq DNA polymerase (Promega). Twenty-five rounds of PCR were done using the following conditions: 94° C., 1 minute for denaturation, 50° C., 1 minute for annealing followed by 72° C., 3 minutes for extension. Excess primers were removed with a Centricon 30 miniconcentrator. A portion of this first round reaction was used as a template in a second round of PCR using the following primers […] and […]. The number of rounds of PCR and the conditions were the same as those used for the first round. The DNA obtained after this second round was digested with the restriction enzymes Hind III and Xba I using standard methodology. Cesium chloride-purified pRc/CMV (Invitrogen) was also digested with Hind III and Xba I using standard methodology. The products of the two digests were resolved on a 1% low melt agarose gel. The human B2 receptor DNA (approximately 1.1 kb) and the pRc/CMV DNA (approximately 5.5 kb) were excised from the gel. The gel slices containing these DNAs were heated at 65° C. and aliquots combined in a reaction containing T4 DNA ligase. The reaction was incubated overnight at 15° C.
An aliquot of this reaction was used to transform frozen competent E. coli DH5α cells (GibcoBRL). Transformants containing the human B2 receptor DNA were selected on LB+amp plates. One of the transformants was selected and the sequence of the human B2 receptor DNA insert determined using the Sequenase enzyme (United States Biochemical) according to the manufacturer's instructions. This sequence was compared to the sequence of Hess et al (Biochemical and Biophysical Research Communications 184:260 1992)). […] The human BK2 receptor-pRc/CMV plasmid was transfected into CHO-k1 cells using the Lipofectamine reagent (GibcoBRL).
Cells containing the receptor were grown to confluence and harvested by scraping into PBS and homogenized. Membranes were prepared by centrifugation in 25 mM TES pH6.8 containing 1 mM 1.10 Phenanthroline. The final pellet was resuspended in assay buffer (25 mM TES, 1 mM 1.10 Phenanthroline, 1 mM DTT, […] Captopril, 0.1% BSA pH=6.8) and frozen. […] Incubation was carried out at room temperature for 45 min. The assay was terminated by filtration through a polyethylenimine soaked G-A filter. Radioactivity was measured on a Wallac 1450 MicroBeta LSC.
The Kd for the receptor was determined by kinetic analysis of on and off rates utilizing a single exponential decay off rate. Ki 's for compounds were calculated using the following equation: Ki =IC50 /(1+[L]/Kd), where L=free ligand concentration.

[5] = CHO clone S34f membranes, 0.3 nM 3H-Bradykinin, room temperature 45 min, read-out: Human Receptor Clone B2 receptor binding (Ki) (converted)

| SMILES | IC50 [1] [nM] | Uterus Activity, antagonist potency given as pA2 [2] | Ileum Activity, antagonist potency given as pA2 [3] | Ki [4, 5] [nM] | Ki [4] [nM] |
| --- | --- | --- | --- | --- | --- |
| N=C(N)NCCC[C@@H](N)C(=O)N[C@@H](CCCNC(=N)N)C(=O)N1CCC[C@H]1C(=O)N1C[C@H](O)C[C@H]1C(=O)NCC(=O)N[C@@H](Cc1cccs1)C(=O)N[C@@H](CO)C(=O)N[C@@H](C(=O)N1Cc2ccccc2C[C@H]1C(=O)N[C@@H](CCCNC(=N)N)C(=O)O)C1Cc2ccccc2C1 [Compound 22, DArg-Arg-Pro-Hyp-Gly-Thi-Ser-DIglb-Tic-Arg] | 1780 | 7.0 | 6.8 | 0.0126 | – |
| N=C(N)NCCC[C@H](NC(=O)[C@@H]1C[C@@H]2CCCC[C@@H]2N1C(=O)[C@H](NC(=O)[C@H](CO)NC(=O)[C@@H](NC(=O)CNC(=O)[C@@H]1C[C@@H](O)CN1C(=O)[C@@H]1CCCN1C(=O)[C@H](CCCNC(=N)N)NC(=O)[C@@H](CCCNC(=N)N)NC(=O)C1=CN2CCC1CC2)C1Cc2ccccc2C1)C1Cc2ccccc2C1)C(=O)O [Compound 3, Dhg-DArg-Arg-Pro-Hyp-Gly-Iglb-Ser-DIg lb-Oic-Arg] | 1170 | 7.4 | 7.6 | 0.00141 | – |
| COc1cc(C=CC(=O)N[C@H](CCCNC(=N)N)C(=O)N[C@@H](CCCNC(=N)N)C(=O)N2CCC[C@H]2C(=O)N2C[C@H](O)C[C@H]2C(=O)NCC(=O)N[C@@H](Cc2cccs2)C(=O)N[C@@H](CO)C(=O)N[C@@H](C(=O)N2[C@H](C(=O)N[C@@H](CCCNC(=N)N)C(=O)O)C[C@@H]3CCCC[C@@H]32)C2Cc3ccccc3C2)cc(OC)c1O [Compound 60, Sin-DArg-Arg-Pro-Hyp-Gly-Thi-Ser-DIglb-Oic-Arg] | 2090 | 8.3 | 7.3 | 0.0692 | – |
| N=C(N)NCCC[C@@H](N)C(=O)N[C@@H](CCCNC(=N)N)C(=O)N1CCC[C@H]1C(=O)N1C[C@H](O)C[C@H]1C(=O)NCC(=O)N[C@H](Cc1cccs1)C(=O)N[C@@H](CO)C(=O)N[C@@H](C(=O)N1[C@H](C(=O)N[C@@H](CCCNC(=N)N)C(=O)O)C[C@@H]2CCCC[C@@H]21)C1Cc2ccccc2C1 [Compound 31, DArg-Arg-Pro-Hyp-Gly-DThi-Ser-DIglb-Oic-Arg] | > 10000 | – | – | – | 0.01 |
| N=C(N)NCCC[C@H](NC(=O)[C@@H]1C[C@@H]2CCCC[C@@H]2N1C(=O)[C@H](NC(=O)[C@H](CO)NC(=O)[C@H](Cc1ccccc1)NC(=O)CNC(=O)[C@@H]1C[C@@H](O)CN1C(=O)[C@@H]1CCCN1C(=O)[C@H](CCCNC(=N)N)NC(=O)[C@@H](CCCNC(=N)N)NC(=O)C12CC3CC(CC(C3)C1)C2)C1Cc2ccccc2C1)C(=O)O [Compound 53, Aca-DArg-Arg-Pro-Hyp-Gly-Phe-Ser-DIglb-Oic-Arg] (Adamantane1carbonyl-[dR]RP[Hyp]GFS[dIgl][Oic]R-OH) | 1260 | 8.2 | 7.4 | 0.0141 | – |
| N=C(N)NCCC[C@@H](N)C(=O)N[C@@H](CCCNC(=N)N)C(=O)N1CCC[C@H]1C(=O)N1C[C@H](O)C[C@H]1C(=O)NCC(=O)N[C@@H](Cc1cccs1)C(=O)N[C@@H](CO)C(=O)N1Cc2ccccc2C[C@@H]1C(=O)N(CC(=O)N[C@@H](CCCNC(=N)N)C(=O)O)C1Cc2ccccc2C1 [Compound 23, DArg-Arg-Pro-Hyp-Gly-Thi-Ser-DTic-Nigb-Arg] | > 10000 | 8.3 | 7.2 | 0.0158 | – |
| CN(C(=O)[C@H](CCCNC(=N)N)NC(=O)[C@H](N)CCCNC(=N)N)[C@@H](Cc1ccccc1)C(=O)N1C[C@H](O)C[C@H]1C(=O)NCC(=O)N[C@H](C(=O)N[C@@H](CO)C(=O)N[C@@H](C(=O)N1[C@H](C(=O)N[C@@H](CCCNC(=N)N)C(=O)O)C[C@@H]2CCCC[C@@H]21)C1Cc2ccccc2C1)C1Cc2ccccc2C1 [Compound 45, DArg-Arg-NMF-Hyp-Gly-Iglb-Ser-DIglb-Oic-Arg] (H-[dR]R[NMeF][Hyp]G[Igl]S[dIgl][Oic]R-OH) | 2880 | – | – | 0.141 | – |
| N=C(N)NCCC[C@@H](N)C(=O)N[C@@H](CCCNC(=N)N)C(=O)N1CCC[C@H]1C(=O)N1C[C@H](O)C[C@H]1C(=O)NCC(=O)N[C@@H](Cc1cccs1)C(=O)N[C@@H](CO)C(=O)N(CC(=O)N1[C@H](C(=O)N[C@@H](CCCNC(=N)N)C(=O)O)C[C@@H]2CCCC[C@@H]21)C1Cc2ccccc2C1 [Compound 16, DArg-Arg-Pro-Hyp-Gly-Thi-Ser-Nigb-Oic-Arg] | – | 6.8 | 7.0 | 0.309 | – |
| N=C(N)NCCC[C@H](NC(=O)[C@@H]1C[C@@H]2CCCC[C@@H]2N1C(=O)[C@H](NC(=O)[C@H](CO)NC(=O)[C@H](Cc1cccs1)NC(=O)CNC(=O)[C@@H]1C[C@@H](O)CN1C(=O)[C@@H]1CCCN1C(=O)[C@@H](N)CCCNC(=N)N)C1Cc2ccccc2C1)C(=O)O [Compound 5, Arg-Pro-Hyp-Gly-Thi-Ser-DIglb-Oic-Arg] (H-RP[Hyp]G[2Thi]S[dIgl][Oic]R-OH) | 1550 | – | 7.7 | 0.0692 | – |
| N=C(N)NCCC[C@H](NC(=O)[C@@H]1C[C@@H]2CCCC[C@@H]2N1C(=O)[C@H](NC(=O)[C@H](COS(=O)(=O)O)NC(=O)[C@H](Cc1cccs1)NC(=O)CNC(=O)[C@@H]1C[C@@H](O)CN1C(=O)[C@@H]1CCCN1C(=O)[C@H](CCCNC(=N)N)NC(=O)[C@@H](CCCNC(=N)N)NC(=O)C12CC3CC(CC(C3)C1)C2)C1Cc2ccccc2C1)C(=O)O [Compound 61, Aca-DArg-Arg-Pro-Hyp-Gly-Thi-Ser(SO)-DIglb-Oic-Arg] | 4170 | – | 7.5 | 4.07 | – |

Reference: US5648336A (University of Colorado, priority 1994, dated 1997)
